Values of other authors in PubChem BioAssay AID1259409 (Chemical Carcinogenesis Research Information System (CCRIS), 2018).

Test system: rodent chemically induced tumor inhibition, incidence and multiplicity
Assay: CCRIS tumor inhibitor studies
Conditions: Promoter: NONE USED
Source text: The CCRIS database contains chemical records with carcinogenicity, mutagenicity, tumor promotion, and tumor inhibition test results. It was developed by the National Cancer Institute (NCI). Data are derived from studies cited in primary journals, current awareness tools, NCI reports, and other sources. Test results have been reviewed by experts in carcinogenesis and mutagenesis.
CCRIS provides historical information from the years 1985 - 2011. It is no longer updated.
This is an archive assay for CCRIS tumor inhibitor studies.

**Q.** What does the source list for O=C1O[C@H]([C@@H](O)CO)C(O)=C1O?
**A.** tumour outcome (control, treated, inhibition, significance) (Carcinogen: N-METHYL-N-NITROSOUREA, 684-93-5, Dose [Inhibitor]: 1% IN 20% FAT DIET DAILY STARTING 2 WK BEFORE START OF CARCINOGEN TREATMENT AND CONTINUING FOR DURATION OF STUDY (STUDY, Route [Inhibitor]: ORAL, Species: RAT, Strain/Sex: F344/FEMALE, Target Tissue: Type of Lesion: MAMMARY GLAND: FIBROADENOMA, Dose [Carcinogen]: 2 MG 2/WK FOR 2 WK): 25%, 38%, -52%, not significant; tumour outcome (control, treated, inhibition, significance) (Carcinogen: N-NITROSOMORPHOLINE, 59-89-2, Dose [Inhibitor]: 22.7 G/KG OF DIET 5 D/WK FOR 2 YR STARTING SIMULTANEOUSLY WITH CARCINOGEN TREATMENT AT 8 WK OF AGE AND CONTINUING FOR DU, Route [Inhibitor]: ORAL, Species: RAT, Strain/Sex: MRC/MALE, Target Tissue: Type of Lesion: FORESTOMACH: SQUAMOUS CELL PAPILLOMA, SQUAMOUS CELL CARCINOMA, Dose [Carcinogen]: 0.15 G/L DRINKING WATER 5 D/WK FOR 2 YR): 1/41 (2%), 4/47 (9%), -350%, not calculated; tumour outcome (control, treated, inhibition, significance) (Carcinogen: N-NITROSOMORPHOLINE, 59-89-2, Dose [Inhibitor]: 22.7 G/KG OF DIET 5 D/WK FOR 2 YR STARTING SIMULTANEOUSLY WITH CARCINOGEN TREATMENT AT 8 WK OF AGE AND CONTINUING FOR DU, Route [Inhibitor]: ORAL, Species: RAT, Strain/Sex: MRC/MALE, Target Tissue: Type of Lesion: LIVER: KUPFFER CELL SARCOMA, Dose [Carcinogen]: 0.15 G/L DRINKING WATER 5 D/WK FOR 2 YR): 28/41 (68%), 34/47 (72%), -6%, not calculated; tumour outcome (control, treated, inhibition, significance) (Carcinogen: N-NITROSOMORPHOLINE, 59-89-2, Dose [Inhibitor]: 22.7 G/KG OF DIET 5 D/WK FOR 2 YR STARTING SIMULTANEOUSLY WITH CARCINOGEN TREATMENT AT 8 WK OF AGE AND CONTINUING FOR DU, Route [Inhibitor]: ORAL, Species: RAT, Strain/Sex: MRC/MALE, Target Tissue: Type of Lesion: LIVER: LIVER CELL CARCINOMA, Dose [Carcinogen]: 0.15 G/L DRINKING WATER 5 D/WK FOR 2 YR): 17/41 (41%), 20/47 (43%), -5%, not calculated; tumour outcome (control, treated, inhibition, significance) (Carcinogen: TRANS-5-AMINO-3-[2-(5-NITRO-2-FURYL)VINYL]-1,2,4-OXADIAZOLE;SQL8506, 28754-68-9, Carcinogen: TRANS-5-AMINO-3-[2-(5-NITRO-2-FURYL)VINYL]-1,2,4-OXADIAZOLE;SQL8506, 28754-68-9, Dose [Inhibitor]: 2 G/KG 16 HR BEFORE THE 1ST CARCINOGEN DOSE FOLLOWED BY ADDITIONAL DOSES IMMEDIATELY BEFORE EACH DOSE OF CARCINOGEN (STU, Route [Inhibitor]: INTRAPERITONEAL, Species: MOUSE, Strain/Sex: CD-1/FEMALE, Target Tissue: Type of Lesion: HEMATOPOIETIC SYSTEM: MYELOID LEUKEMIA, Dose [Carcinogen]: 1 G/KG 2/D FOR 5 D EVERY 4 WK FOR 3 COURSES OF TREATMENT): 7/137 (5%), 3/45 (7%), -40%, not calculated; tumour outcome (control, treated, inhibition, significance) (Carcinogen: TRANS-5-AMINO-3-[2-(5-NITRO-2-FURYL)VINYL]-1,2,4-OXADIAZOLE;SQL8506, 28754-68-9, Carcinogen: TRANS-5-AMINO-3-[2-(5-NITRO-2-FURYL)VINYL]-1,2,4-OXADIAZOLE;SQL8506, 28754-68-9, Dose [Inhibitor]: 2 G/KG 16 HR BEFORE THE 1ST CARCINOGEN DOSE FOLLOWED BY ADDITIONAL DOSES IMMEDIATELY BEFORE EACH DOSE OF CARCINOGEN (STU, Route [Inhibitor]: INTRAPERITONEAL, Species: MOUSE, Strain/Sex: CD-1/FEMALE, Target Tissue: Type of Lesion: LYMPHOID TISSUE: NONTHYMIC LYMPHOMA, Dose [Carcinogen]: 1 G/KG 2/D FOR 5 D EVERY 4 WK FOR 3 COURSES OF TREATMENT): 8/137 (6%), 2/45 (4%), 33%, not calculated; tumour outcome (control, treated, inhibition, significance) (Carcinogen: TRANS-5-AMINO-3-[2-(5-NITRO-2-FURYL)VINYL]-1,2,4-OXADIAZOLE;SQL8506, 28754-68-9, Carcinogen: TRANS-5-AMINO-3-[2-(5-NITRO-2-FURYL)VINYL]-1,2,4-OXADIAZOLE;SQL8506, 28754-68-9, Dose [Inhibitor]: 2 G/KG 16 HR BEFORE THE 1ST CARCINOGEN DOSE FOLLOWED BY ADDITIONAL DOSES IMMEDIATELY BEFORE EACH DOSE OF CARCINOGEN (STU, Route [Inhibitor]: INTRAPERITONEAL, Species: MOUSE, Strain/Sex: CD-1/FEMALE, Target Tissue: Type of Lesion: LYMPHOID TISSUE: THYMIC LYMPHOMA, Dose [Carcinogen]: 1 G/KG 2/D FOR 5 D EVERY 4 WK FOR 3 COURSES OF TREATMENT): 22/137 (16%), 7/45 (16%), 0%, not calculated; tumour outcome (control, treated, inhibition, significance) (Carcinogen: TRANS-5-AMINO-3-[2-(5-NITRO-2-FURYL)VINYL]-1,2,4-OXADIAZOLE;SQL8506, 28754-68-9, Carcinogen: TRANS-5-AMINO-3-[2-(5-NITRO-2-FURYL)VINYL]-1,2,4-OXADIAZOLE;SQL8506, 28754-68-9, Dose [Inhibitor]: 2 G/KG 16 HR BEFORE THE 1ST CARCINOGEN DOSE FOLLOWED BY ADDITIONAL DOSES IMMEDIATELY BEFORE EACH DOSE OF CARCINOGEN (STU, Route [Inhibitor]: INTRAPERITONEAL, Species: MOUSE, Strain/Sex: CD-1/FEMALE, Target Tissue: Type of Lesion: STOMACH: SQUAMOUS CARCINOMA, Dose [Carcinogen]: 1 G/KG 2/D FOR 5 D EVERY 4 WK FOR 3 COURSES OF TREATMENT): 60/137 (44%), 14/45 (31%), 30%, not calculated; tumour outcome (control, treated, inhibition, significance) (Carcinogen: UV IRRADIATION, Dose [Inhibitor]: 0.3% IN DIET BEGINNING 10 D PRIOR TO CARCINOGEN DOSE AND CONTINUING FOR DURATION OF STUDY (STUDY DURATION: 27 WK), Route [Inhibitor]: ORAL, Species: MOUSE, Strain/Sex: SKH/HRL/FEMALE, Target Tissue: Type of Lesion: SKIN: CARCINOMA OR PAPILLOMA, Dose [Carcinogen]: 1.13 J/CM2/D INCREASED EVERY 2 WK TO A FINAL VALUE OF 1.97 J/CM2/D 5 D/WK FOR 15 WK (TOTAL EXPOSURE: 135 J/CM2)): 23/44 (52%), 24/39 (62%), -19%, not calculated; tumour outcome (control, treated, inhibition, significance) (Carcinogen: UV IRRADIATION, Dose [Inhibitor]: 5% IN DIET BEGINNING 10 D PRIOR TO CARCINOGEN DOSE AND CONTINUING FOR DURATION OF STUDY (STUDY DURATION: 27 WK), Route [Inhibitor]: ORAL, Species: MOUSE, Strain/Sex: SKH/HRL/FEMALE, Target Tissue: Type of Lesion: SKIN: PAPILLOMA OR CARCINOMA, Dose [Carcinogen]: 1.13 J/CM2/D INCREASED EVERY 2 WK TO A FINAL VALUE OF 1.97 J/CM2/D 5 D/WK FOR 15 WK (TOTAL EXPOSURE: 135 J/CM2)): 23/44 (52%), 15/38 (39%), 25%, not calculated; tumour outcome (control, treated, inhibition, significance) (Carcinogen: UV IRRADIATION, Dose [Inhibitor]: 10% IN DIET BEGINNING 10 D PRIOR TO CARCINOGEN DOSE AND CONTINUING FOR DURATION OF STUDY (STUDY DURATION: 27 WK), Route [Inhibitor]: ORAL, Species: MOUSE, Strain/Sex: SKH/HRL/FEMALE, Target Tissue: Type of Lesion: SKIN: PAPILLOMA OR CARCINOMA, Dose [Carcinogen]: 1.13 J/CM2/D INCREASED EVERY 2 WK TO A FINAL VALUE OF 1.97 J/CM2/D 5 D/WK FOR 15 WK (TOTAL EXPOSURE: 135 J/CM2)): 23/44 (52%), 14/40 (35%), 33%, not calculated; outcome (Dose [Inhibitor]: 22.7 G/KG OF DIET 5 D/WK FOR 2 YR STARTING SIMULTANEOUSLY WITH CARCINOGEN TREATMENT AT 8 WK OF AGE AND CONTINUING FOR DU, Route [Inhibitor]: ORAL, Species: RAT, Strain/Sex: MRC/MALE, Target Tissue: Type of Lesion: FORESTOMACH: SQUAMOUS CELL PAPILLOMA, SQUAMOUS CELL CARCINOMA): 0/37 (0%), 21/39 (54%), not calculated; tumour outcome (control, treated, inhibition, significance) (Dose [Inhibitor]: 22.7 G/KG OF DIET 5 D/WK FOR 2 YR STARTING SIMULTANEOUSLY WITH CARCINOGEN TREATMENT AT 8 WK OF AGE AND CONTINUING FOR DU, Route [Inhibitor]: ORAL, Species: RAT, Strain/Sex: MRC/MALE, Target Tissue: Type of Lesion: LIVER: KUPFFER CELL SARCOMA): 13/37 (35%), 7/39 (18%), 49%, not significant; tumour outcome (control, treated, inhibition, significance) (Dose [Inhibitor]: 22.7 G/KG OF DIET 5 D/WK FOR 2 YR STARTING SIMULTANEOUSLY WITH CARCINOGEN TREATMENT AT 8 WK OF AGE AND CONTINUING FOR DU, Route [Inhibitor]: ORAL, Species: RAT, Strain/Sex: MRC/MALE, Target Tissue: Type of Lesion: LIVER: LIVER CELL CARCINOMA): 12/37 (32%), 10/39 (26%), 19%, not significant
